Assay results published in patent US6331547A, “Water soluble SDZ RAD esters” (American Home Products Corporation, priority 2000, dated 2001).
Converted amounts (≈) assume the structure as drawn.

What was measured:
U87MG Human Glioblastoma = experiment: U87MG human glioblastoma 3H thymidine incorporation; type: cell-based
Protocol: U87MG Human Glioblastoma (ATCC # HTB-14)
3H Thymidine Incorporation Protocol
BRL Minimum Essential Medium with Earle Salts (500 ml)
+5 mLBRL MEM Non-Essential Amino Acids (10 mM)
+5 mLBRL Penicillin-Streptomycin
+5 mLBRL Na Pyruvate Solution (100 mM)
+5 mLBRL L-Glutamine 200 mM
+50 mLBRL Fetal Bovine Serum (Qualified)
1. Cells were trypsinized and plated at a concentration of 10^4 cells/well in a final volume of 200 μl growth medium in 96-well flat bottom plates and allowed to adhere for 24 hours at 37° C.
2. The media was removed by aspiration with care to not disturb the cell monolayer. 200 μl of fresh growth media was added per well, allowing enough wells for samples to be run in triplicate. Compounds were added in 10 μl PBS solutions and incubated for another 48 hours at 37° C.
3. During the last 5 hours of incubation, plates were labeled with 1 μCi 3H thymidine per well. (NEN thymidine, catalog # NET-027, 6.7 Ci/mmole). The 1 μCi was added in 10 μl of PBS (on the day of harvest.). The plates were returned to the incubator for the last 5 hours.
4. The radioactive media was removed by aspiration, with care not to disturb the cell monolayer. 50 μl of BRL 10×Trypsin was added to each well, followed by incubation at 37° C. for 10 minutes or until the monolayer was loosened from the well bottom. […] Mats were counted in a Wallac Betaplate counter.

Candida albicans = details: particularly against Candida albicans, both in vitro and in vivo; cited from earlier work
[1] = alone; U.S. Pat. No. 4,885,171; cited from earlier work
[2] = system: experimental allergic encephalomyelitis model; details: model for multiple sclerosis; cited from earlier work
adjuvant arthritis model = details: model for rheumatoid arthritis; cited from earlier work
IgE-like antibodies = details: in vivo; cited from earlier work
[3] = U.S. Pat. No. 5,665,772; cited from earlier work

Structure (SMILES)	IC50 (U87MG Human Glioblastoma; Homo sapiens, U-87 MG) [ng/mL]	antifungal activity (Candida albicans)	antitumor activity [1]	effect in the experimental allergic encephalomyelitis model [2]	effect in the adjuvant arthritis model (adjuvant arthritis model)	inhibition of the formation of IgE-like antibodies (IgE-like antibodies)	IC50 (U87MG Human Glioblastoma; 3H thymidine incorporation, 48 hours incubation, 37° C., U87MG) [ng/mL]	immunosuppressive activity in animal model [3]
CO[C@H]1C[C@@H]2CC[C@@H](C)[C@@](O)(O2)C(=O)C(=O)N2CCCC[C@H]2C(=O)O[C@H]([C@H](C)C[C@@H]2CC[C@@H](O)[C@H](OC)C2)CC(=O)[C@H](C)/C=C(\C)[C@@H](O)[C@@H](OC)C(=O)[C@H](C)C[C@H](C)/C=C/C=C/C=C/1C [Rapamycin]	0.5 (≈ 0.547 nM)	found to have antifungal activity	shown to have antitumor activity	effective	effective	effectively inhibited		
CO[C@H]1C[C@@H]2CC[C@@H](C)[C@@](O)(O2)C(=O)C(=O)N2CCCC[C@H]2C(=O)O[C@H]([C@H](C)C[C@@H]2CC[C@@H](OCCO)[C@H](OC)C2)CC(=O)[C@H](C)/C=C(\C)[C@@H](O)[C@@H](OC)C(=O)[C@H](C)C[C@H](C)/C=C/C=C/C=C/1C [SDZ-RAD, 40-O-(2-hydroxy)ethyl-rapamycin]							2.0 (≈ 2.09 nM)	has immunosuppressive activity
